US6900200B2, “Tricyclic hydroxy carboxamides and derivatives thereof tocolytic oxytocin receptor antagonists” (Wyeth, priority 2001, dated 2005)

The compounds below were run against T1, human vasopressin V1a receptor subtype (Homo sapiens, UniProt P37288) (assay: Vasopressin binding in CHO cell membranes expressing human vasopressin V1a subtype receptors ([3H]Manning ligand radioligand binding)). Conditions: @ 100 nM.
T1 construct: host or cells: CHO cells; pZeoSV vector for the Thibonnier line
T1 sequence (P37288 whole entry): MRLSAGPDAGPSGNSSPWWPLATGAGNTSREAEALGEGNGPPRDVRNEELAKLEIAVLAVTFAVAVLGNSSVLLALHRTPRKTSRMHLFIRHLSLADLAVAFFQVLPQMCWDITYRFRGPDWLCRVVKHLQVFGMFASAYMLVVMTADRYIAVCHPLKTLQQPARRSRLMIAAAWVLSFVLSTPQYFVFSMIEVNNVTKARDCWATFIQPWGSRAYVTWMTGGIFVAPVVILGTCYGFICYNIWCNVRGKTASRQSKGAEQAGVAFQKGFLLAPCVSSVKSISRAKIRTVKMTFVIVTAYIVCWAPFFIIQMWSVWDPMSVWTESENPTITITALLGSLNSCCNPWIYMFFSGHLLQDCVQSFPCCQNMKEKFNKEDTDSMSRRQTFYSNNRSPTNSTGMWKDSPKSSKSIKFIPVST
Description: Vasopressin Binding in Chinese Hamster Ovary Cell Membranes Expressing Human Vasopressin V1a Subtype Receptors
Chinese hamster ovary cells (CHO cells) stably transfected with the human vasopressin V1a subtype receptors were either obtained from BioSignal Inc., 1744 rue Williams, Montreal, Quebec, Canada or obtained from M. Thibonnier, Case Western Reserve University School of Medicine, Cleveland, Ohio.
A. Passaging and Amplification of Cells
CHO cells transfected with the human vasopressin V1a subtype receptors obtained from M. Thibonnier (pZeoSV vector) are allowed to grow to confluency (approx. >90%) in T-150 flasks under sterile conditions, in a cell culture medium of F-12 Nutrient Mixture (HAM) with L-glutamine (Gibco Cat. #11765-054) containing 15 mM HEPES (Gibco Cat. #15630-080), 1% antibiotic/antimycotic (add 5 mL 100×, Gibco Cat. #15240-062 per 500 mL F-12), 250 μg/mL Zeocin (add 1.25 mL of 100 mg/mL Invitrogen R-250-01 per 500 mL F-12) and 10% Fetal Bovine Serum (Qualified, heat inactivated, Gibco Cat. #16140-063). The medium is removed by aspiration and the cells are washed with 10 mL of Hank's Balanced Salt solution (Gibco Cat. #14175-095). The salt solution is removed by aspiration and the cells are trypsinized with 5 mL of trypsin-EDTA (0.05% trypsin, 0.53 mM EDTA-4Na, Gibco Cat. #25300-070) for 1 min. The trypsin is removed by aspiration and the cells dislodged by tapping. Cell Culture medium (e.g. 30 mL for 1:30 split) is immediately added and mixed well to inactivate trypsin. 1 mL of detached cells is added to new culture flasks containing fresh cell culture medium (e.g., into 25 mL per T-150 flask), and mixed gently. The cells are incubated at 37° C. in 5% CO2. The medium is changed at 3 to 4 days interval (or as appropriate). The cells grow to confluency (approx. >75%-95%) within 7-8 days. All steps are done under sterile conditions.
The cells are washed twice gently with Hank's Balanced Salt solution (e.g,. use 10 mL per T-150 flask). The excess is removed and the cells are bathed for 15-30 min. in an enzyme-free Cell Dissociation Buffer (e.g. use 8 mL Hank's Based, Gibco Cat. #13150-016 per T-150 flask) until the cells are loosened. The contents are transferred to centrifuge tubes (50 mL) kept in an ice bath. All subsequent steps are done at 4° C. The tubes are centrifuged at 300×g for 15 min (1380 rpm on SORVAL, Model RT6000D, using the rotor for 50 mL tubes). The supernatant is discarded and the cells suspended in homogenizing buffer(10 mM Tris-HCl containing 0.25 M sucrose and 1 mM EDTA, pH 7.4) ensuring that the volume of the buffer is about ten times the volume of the cell pellet. The cells are pooled into a centrifuge tube (50 mL) and homogenized with Polytron at setting 6 for 10 sec. The homogenate is transferred into a Potter-Elvjehm homogenizer and homogenized with 3 strokes. The homogenate is centrifuged at 1500×g for 10 min at 4° C. (3100 rpm using SORVAL, model RT6000D, using the rotor for 50 mL tubes). The pellet is discarded. The supernatant is centrifuged at 100,000×g for 60 min. at 4° C. (Beckman L8-80M ultracentrifuge; spin at 37,500 rpm with rotor type 70 Ti for 50 mL tubes; 38,000 rpm with type 80Ti for 15 mL tubes; or 35,800 rpm with rotor type 45Ti). The supernantant is discarded and the pellet suspended in 3 to 4 mL of Tris buffer (50 mM TRIS—HCl, pH 7.4). The protein content is estimated by the Bradford or Lowry method. The volume of the membrane suspension is adjusted with the membrane buffer (50 mM Tris-HCl containing 0.1% BSA and 0.1 mM PMSF) to give 3.0 mg/mL (or as appropriate) of protein. The membranes are aliquoted and stored at −70° C.
C. Radioligand Binding Assay […]
Compound COc1ccccc1-c1ccc(C(=O)N2Cc3ccc(C(=O)N4CCN(CCO)CC4)n3Cc3ccccc32)cc1C [Example 40, [4-(2-Hydroxyethyl)-1-piperazinyl]{10-[(2′-methoxy-2-methyl[1,1′-biphenyl]-4yl)carbonyl]-10,11-dihydro-5H-pyrrolo[2,1-c][1,4]benzodiazepin-3-yl}methanone] has an inhibition at 0.1 µM of 13%. COc1ccccc1-c1ccc(C(=O)N2Cc3ccc(C(=O)N(C)C[C@H](O)CO)n3Cc3ccccc32)cc1C (single isomer, unassigned) [Example 15] was tested, and the inhibition at 0.1 µM was 59%. In the case of COc1cccc(-c2ccc(C(=O)N3Cc4ccc(C(=O)N5CCN(CCO)CC5)n4Cc4ccccc43)cc2C)c1 [Example 44, [4-(2-Hydroxyethyl)-1-piperazinyl]{10-[(3′-methoxy-2-methyl[1,1′-biphenyl]-4yl)carbonyl]-10,11-dihydro-5H-pyrrolo[2,1-c][1,4]benzodiazepin-3-yl}methanone], the inhibition at 0.1 µM is reported as 17%. O=C(c1ccc2n1Cc1ccccc1N(C(=O)c1ccc(-c3cccc4ccccc34)cc1Cl)C2)N1CCN(CCO)CC1 [Example 25, 2-{4-[10-{[2-Chloro-4-(naphthalen-1-yl)phenyl]carbonyl}-(10,11-dihydro-5H-pyrrolo[2,1-c][1,4]benzodiazepin-3-yl)carbonyl]piperazine-1-yl}-1-hydroxyethane] was tested, and the inhibition at 0.1 µM was 5%. COCCN1CCN(C(=O)c2ccc3n2Cc2ccccc2N(C(=O)c2ccc(-c4ccccc4C(F)(F)F)c(C)c2)C3)CC1 [Example 7, Methyl 2-{4-[(10-{[2-methyl-2′-trifluoromethyl-[1,1′-biphenyl]-4-yl]carbonyl}-10,11-dihydro-5H-pyrrolo[2,1-c][1,4]benzodiazepin-3-yl)carbonyl]piperazin-1-yl}ethyl ether] was tested, and the inhibition at 0.1 µM was -2%. For COc1ccccc1-c1ccc(C(=O)N2Cc3ccc(C(=O)N(C)C[C@@H](O)CO)n3Cc3ccccc32)cc1C (single isomer, unassigned) [Example 16], the inhibition at 0.1 µM was 68%. In the case of COc1cccc(-c2ccc(C(=O)N3Cc4ccc(C(=O)N5CCN(CCO)CC5)n4Cc4ccccc43)cc2OC)c1 [Example 50, {10-[(2,3′-Dimethoxy[1,1′-biphenyl]-4-yl)carbonyl]-10,11-dihydro-5H-pyrrolo[2,1-c][1,4]benzodiazepin-3-yl}[4-(2-hydroxyethyl)-1-piperazinyl]methanone], the inhibition at 0.1 µM is reported as 52%.

Same assay, conditions: value printed in parentheses
Cc1cc(C(=O)N2Cc3ccc(C(=O)N4CCN(C[C@@H](O)CO)CC4)n3Cc3ccccc32)ccc1-c1ccccc1C(F)(F)F [Example 6, (2R)-3-{4-[(10-{[2-Methyl-2′-trifluoromethyl-[1,1′-biphenyl]-4-yl]carbonyl}-10,11-dihydro-5H-pyrrolo[2,1-c][1,4]benzodiazepin-3-yl)carbonyl]piperazin-1-yl}propane-1,2-diol] showed an IC50 of 2410 nM. Work on COc1cc(C(=O)N2Cc3ccc(C(=O)N(C)CC(O)CN(C)C)n3Cc3ccccc32)ccc1-c1ccccc1C(F)(F)F (stereo not shown) [Example 22, N-[(3-Dimethylamino)-2-hydroxy-propyl]-10-{[2-methoxy-2′-trifluoromethyl-[1,1′-biphenyl]-4-yl]carbonyl}-N-methyl-10,11-dihydro-5H-pyrrolo[2,1-c][1,4]benzodiazepine-3-carboxamide] yielded an IC50 of 227 nM. Compound Cc1cc(C(=O)N2Cc3ccc(C(=O)N(C)C[C@@H]4OC(=O)O[C@H]4[C@H](O)[C@H]4COC(=O)O4)n3Cc3ccccc32)ccc1-c1ccccc1C(F)(F)F [Example 12, N-[((4S,5S)-5-{(R)-Hydroxy[(4R)-2-oxo-1,3-dioxolan-4-yl]methyl}-2-oxo-1,3-dioxolan-4-yl)methyl]-N-methyl-10-{[2-methyl-2′-(trifluoromethyl)[1,1′-biphenyl]-4-yl]carbonyl}-10,11-dihydro-5H-pyrrolo[2,1-c]benzodiazepine-3-carboxamide] has an IC50 of 1620 nM.
